# In ChEMBL document CHEMBL5321295, “Targeted Degradation of Alpha-Synuclein by Autophagosome-Anchoring Chimera Peptides” (J Med Chem, 2023):
# Activity calls are given as the source filed them. No cut-off for these calls is given here.
# What was measured:
# [1] = system: HEK-293T; test: Downregulation of MARCKS expression in HEK293T cells at 100 uM incubated for 24 hrs by proteomic profiling analysis; type: functional, cell-based; details: Homo sapiens
# [2] = system: SH-SY5Y; test: Cytoprotective activity in human SH-SY5Y cells transfected with alpha-synuclein (unknown origin) assessed as cell viability at 100 uM by CCK8 assay relative to control; type: functional; details: read-out: Activity
# [3] = Toxicity in C57BL/6 mouse assessed as histological change in heart at 50 to 200 mg/kg/day treated for 5 days by H and E staining based analysis; type: organism-based; details: in vivo, 120 h, dose 50-200 mg/kg/day, time 5 day
# [4] = system: HEK-293T; test: Downregulation of NACA expression in HEK293T cells at 100 uM incubated for 24 hrs by proteomic profiling analysis; type: functional, cell-based; details: Homo sapiens
# [5] = target: T1, Microtubule-associated protein 1 light chain 3 beta (Homo sapiens, UniProt Q9GZQ8); test: Induction of LC3B-mediated autophagy flux in HEK293T cells overexpressing alpha-synuclein (unknown origin) cotransfected with adenovirus-packaged plasmid encoding mCherry-EGFP-fused LC3B assessed as increase in density of lysosomes upto 100 uM incubated for 4 hrs by LyTR staining based confocal laser scanning microscopy; type: cell-based
# [6] = system: Mus musculus; test: Downregulation of alpha-synuclein level in substantia nigra pars compacta of MPTP-treated C57BL/6 mouse at 50 mg/kg/day, iv treated for 5 days by immunoblot analysis; type: functional, organism-based; details: time 5.0 day
# [7] = Toxicity in C57BL/6 mouse assessed as change in creatine kinase level at 50 to 200 mg/kg/day treated for 5 days; type: organism-based; details: in vivo, 120 h, dose 50-200 mg/kg/day, time 5 day
# [8] = system: SH-SY5Y; test: Cytoprotective activity in human SH-SY5Y cells transfected with alpha-synuclein (unknown origin) assessed as viable cells at 100 uM measured after 24 hrs by […] based flow cytometry (reference value: 28.5 %); type: functional; details: read-out: Activity
# [9] = Toxicity in C57BL/6 mouse assessed as change in LDHL level at 50 to 200 mg/kg/day treated for 5 days; type: organism-based; details: in vivo, 120 h, dose 50-200 mg/kg/day, time 5 day
# [10] = system: Mus musculus; test: Downregulation of phosphorylated alpha-synuclein at S129 residue level in substantia nigra pars compacta of MPTP-treated C57BL/6 mouse at 50 mg/kg/day, iv treated for 5 days by immunoblot analysis; type: functional, organism-based; details: time 5.0 day
# [11] = system: SH-SY5Y; test: Cytotoxicity against wild-type human SH-SY5Y cells assessed as cell viability upto 200 uM incubated for 24 hrs by CCK8 assay; type: functional, cell-based
# [12] = Toxicity in C57BL/6 mouse assessed as tremor at 50 to 200 mg/kg/day treated for 5 days; type: organism-based; details: in vivo, 120 h, dose 50-200 mg/kg/day, time 5 day
# [13] = system: HEK-293T; test: Downregulation of DLST expression in HEK293T cells at 100 uM incubated for 24 hrs by proteomic profiling analysis; type: functional, cell-based; details: Homo sapiens
# [14] = target: T2, Alpha-synuclein (Homo sapiens, UniProt P37840); test: Induction of alpha-synuclein (unknown origin) degradation overexpressed in HEK293T cells infected with adenovirus expressing mCherry-EGFP-LC3B at 50 uM incubated upto 24 hrs by immunoblot analysis; type: cell-based
# [15] = system: Mus musculus; test: Neuroprotective activity in MPTP-induced cognitive impairment in C57BL/6 mouse assessed as increase in time spent in target quadrant in probe trial phase at 50 mg/kg/day, iv treated for 5 days measured after 5 to 8 days days by morris water maze test; type: functional, organism-based; details: time 10-13 day
# [16] = system: HEK-293T; test: Downregulation of EIF2S1 expression in HEK293T cells at 100 uM incubated for 24 hrs by proteomic profiling analysis; type: functional, cell-based; details: Homo sapiens
# [17] = target: T2, Alpha-synuclein; test: Induction of EGFP-fused alpha-synuclein (unknown origin) degradation overexpressed in HEK293T cells assessed as colocalization of alpha-synuclein with mCherry-fused LC3B at 50 uM incubated for 2 hrs by confocal laser scanning microscopy; type: cell-based
# [18] = Toxicity in C57BL/6 mouse assessed as change in creatinine level at 50 to 200 mg/kg/day treated for 5 days; type: organism-based; details: in vivo, 120 h, dose 50-200 mg/kg/day, time 5 day
# [19] = Drug localization in HEK293T cells overexpressing mCherry-fused alpha-synuclein (unknown origin) assessed as puncta formation of alpha-synuclein at 50 uM incubated for 2 hrs by MDC staining based confocal laser scanning microscopy; type: ADME, cell-based; details: human, hek-293t
# [20] = system: HEK-293T; test: Downregulation of SQSTM1 expression in HEK293T cells at 100 uM incubated for 24 hrs by proteomic profiling analysis; type: functional, cell-based; details: Homo sapiens
# [21] = system: HEK-293T; test: Downregulation of UBE2L3 expression in HEK293T cells at 100 uM incubated for 24 hrs by proteomic profiling analysis; type: functional, cell-based; details: Homo sapiens
# [22] = Drug localization in HEK293T cells overexpressing mCherry-fused alpha-synuclein (unknown origin) assessed as colocalization of autophagosomes at 50 uM incubated for 2 hrs by MDC staining based confocal laser scanning microscopy; type: ADME, cell-based; details: human, hek-293t
# [23] = system: HEK-293T; test: Downregulation of THOP1 expression in HEK293T cells at 100 uM incubated for 24 hrs by proteomic profiling analysis; type: functional, cell-based; details: Homo sapiens
# [24] = system: Mus musculus; test: Neuroprotective activity in MPTP-induced cognitive impairment in C57BL/6 mouse assessed as decrease in total distance travelled in navigation trial phase at 50 mg/kg/day, iv treated for 5 days measured after 5 to 8 days days by morris water maze test; type: functional, organism-based; details: time 10-13 day
# [25] = system: HEK-293T; test: Downregulation of BANF1 expression in HEK293T cells at 100 uM incubated for 24 hrs by proteomic profiling analysis; type: functional, cell-based; details: Homo sapiens
# [26] = target: T2, Alpha-synuclein; test: Binding affinity to biotinylated recombinant alpha-synuclein (unknown origin) assessed as dissociation constant by BLI assay
# [27] = system: SH-SY5Y; test: Cytoprotective activity in human SH-SY5Y cells transfected with alpha-synuclein (unknown origin) assessed as early apoptotic cells at 100 uM measured after 24 hrs by […] based flow cytometry (reference value: 0.17 %); type: functional
# [28] = system: SH-SY5Y; test: Cytoprotective activity in human SH-SY5Y cells transfected with alpha-synuclein (unknown origin) assessed as decrease in ROS level at 100 uM measured after 24 hrs by DCFH-DA staining based flow cytometry (reference value: 76 %); type: functional; parameters: scale not given: the % may be the effect or the level left
# [29] = Drug localization in HEK293T cells overexpressing mCherry-fused alpha-synuclein (unknown origin) assessed as colocalization of autophagosomes at 50 uM incubated for 2 hrs by LyTG staining based confocal laser scanning microscopy; type: ADME, cell-based; details: human, hek-293t
# [30] = target: T1, Microtubule-associated protein 1 light chain 3 beta; test: Binding affinity to LC3B in HEK293T cells overexpressing alpha-synuclein (unknown origin) at 50 to 100 uM incubated for 4 hrs by co-IP assay; type: cell-based; details: dose 50-100 µM
# [31] = system: Mus musculus; test: Neuroprotective activity in MPTP-induced cognitive impairment in C57BL/6 mouse assessed as decrease in escape latency in navigation trial phase at 50 mg/kg/day, iv treated for 5 days measured after 5 to 8 days days by morris water maze test; type: functional, organism-based; details: time 10-13 day
# [32] = target: T2, Alpha-synuclein; test: Induction of alpha-synuclein (unknown origin) degradation overexpressed in HEK293T cells pretreated with BafA1 at 50 uM incubated for 24 hrs by immunoblot analysis; type: cell-based
structure (smiles),measurement,setting,value
CC(C)C[C@H](NC(=O)[C@H](Cc1c[nH]cn1)NC(=O)[C@@H](NC(=O)[C@H](Cc1c[nH]c2ccccc12)NC(=O)[C@H](CC(=O)O)NC(=O)[C@H](CC(=O)O)NC(=O)[C@H](CC(=O)O)NC(=O)CNC(=O)CNC(=O)[C@H](CO)NC(=O)[C@H](CO)NC(=O)CNC(=O)[C@H](CO)NC(=O)CNC(=O)[C@H](CCCNC(=N)N)NC(=O)[C@@H](NC(=O)[C@H](CCCCN)NC(=O)[C@H](CO)NC(=O)CNC(=O)[C@@H](NC(=O)[C@H](Cc1ccc(O)cc1)NC(=O)[C@H](CC(C)C)NC(=O)[C@@H](NC(=O)CN)C(C)C)C(C)C)[C@H](C)O)[C@@H](C)O)C(=O)N[C@@H](CO)C(=O)N[C@@H](CO)C(=O)N[C@@H](Cc1ccc(O)cc1)C(=O)NCC(=O)N[C@@H](CCCNC(=N)N)C(=O)N[C@@H](CCCCN)C(=O)N[C@@H](CCCCN)C(=O)N[C@@H](CCCNC(=N)N)C(=O)N[C@@H](CCCNC(=N)N)C(=O)N[C@@H](CCC(N)=O)C(=O)N[C@@H](CCCNC(=N)N)C(=O)N[C@@H](CCCNC(=N)N)C(=O)N[C@@H](CCCNC(=N)N)C(=O)O,Activity,[1],Active
same,viability at 100 µM,[2],94.9%
same,Activity,[3],Non-Toxic
same,Activity,[4],Active
same,Activity,[5],Active
same,Activity,[6],Active
same,Activity,[7],Non-Toxic
same,viability at 100 µM,[8],15.5%
same,Activity,[9],Non-Toxic
same,Activity,[10],Active
same,Activity,[11],inactive
same,Activity,[12],Non-Toxic
same,Activity,[13],Active
same,Activity,[14],Active
same,Activity,[15],Active
same,Activity,[16],Active
same,Activity,[17],Active
same,Activity,[18],Non-Toxic
same,Drug uptake,[19],Active
same,Activity,[20],Active
same,Activity,[21],Active
same,Drug uptake,[22],Active
same,Activity,[23],Active
same,Activity,[24],Active
same,Activity,[25],Active
same,Kd,[26],8.83 µM
same,Activity,[27],0.76%
same,Activity,[28],26.7%
same,Drug uptake,[29],Active
same,Activity,[30],Active
same,Activity,[31],Active
same,Activity,[32],inactive
